No end group written: not given here.
Experiments:
[1] = tested on: β-adrenergic receptor kinase; experiment: Inhibition of rhodopsin phosphorylation by β-adrenergic receptor kinase in the presence of Gβγ; assay type: biochemical; conditions: peptide at 100 µM; 1 µM rhodopsin, 2.5 nM βARK-1, 20 nM Gβγ
Experimental: (§1) • Figure 1 Inhibition of GTPase activity of Go by His6-tagged phosducin and its N-terminally truncated variants. […] The size of the short form of PhLP is indicated by the line on the top. Analysis with nonlinear curve fitting gave the following IC50-values: phosducin 15±1 nM, phosducin(64-246) 33±3 nM, phosducin( 138-246) 25±2 nM, phosducin(172-246) 95±13 nM, phosducin(204-246) 240±20 nM. Data are mean ± SEM of 3 independent experiments • Figure 2 Direct binding of His6-tagged phosducin and phosducin(204-246) to Gβγ. […] After washing, the Gβγ retained in the pellet was detected by SDS-polyacrylamide gel electrophoresis and Western blotting with antibodies directed against Gβ. • Figure 3 Inhibition of G0GTPase activity by synthetic peptides (top) derived from the C-terminus of phosducin. […] The activity of βARK was determined using rhodopsin in rod outer segments the substrate as in Schroeder and Lohse 1996. […] Phospholipase C-β2 activity was determined with a truncated version of PLC-β2 (PLC-mut) as described by Dietrich et al. (1994). […] Activity is expressed as pmoles of inositol 1.4.5-triphosphate formed per minute. • Figure 5 Amide region of a 500 MHz WATERGATED NOESY spectrum of the peptide phosducin(204-231) in 10 mM Phosphate buffer containing 100 mM NaCI and 10% D2O at pH = 6.5 and 277 K. The mixing time used was 250 ms. […]

phospholipase C-β2 = experiment: Inhibition of Gβγ-stimulated phospholipase C-β2 activity; assay type: biochemical; conditions: peptide at 100 µM; Gβγ 600 nM
Experimental: as §1

## GDVESFLNEYGLLPEKEM [phosducin(215-232)]
[1]
  antagonism of the stimulatory effects of Gβγ on the activity of the β-adrenergic receptor kinase: antagonized
Phospholipase C-β2
  antagonism of the stimulatory effects of Gβγ on the activity of phospholipase Cβ2: antagonized

Source: patent publication EP0896965A1, “Inhibitors of G-protein-beta, gamma subumit function” (BOEHRINGER MANNHEIM GMBH, priority 1997, dated 1999)
